Laboratory results published in publication PMC7115430 (European Journal of Medicinal Chemistry, 2014).
Read-outs that look alike come from different tables or passages of the source.

Legend:
in vitro = settings: dog
Punta toro virus = assay: microbe, parasite or virus in culture; assay type: cell-based; settings: Vero, read-out: EC50 Punta toro virus
Sindbis virus = assay: microbe, parasite or virus in culture; assay type: cell-based; settings: Vero, read-out: EC50 Sindbis virus
Para-influenza-3 virus = assay: organism not typed; assay type: cell-based; settings: Vero, read-out: EC50 Para-influenza-3 virus
Vero cells = settings: microscopically detectable alteration of normal cell morphology
Reovirus-1 = assay: organism not typed; assay type: cell-based; settings: Vero, read-out: EC50 Reovirus-1
Influenza B = assay: microbe, parasite or virus in culture; assay type: cell-based; settings: MDCK
[1] = read-out: Antiviral EC50 Influenza B MTS
[2] = read-out: Antiviral EC50 Influenza B Visual CPE score

CC(N)C12CC3CC(CC(C3)C1)C2 (stereo not shown) [Rimantadine]
CC50 (in vitro): > 500 µM

Nc1ncnc2c1ncn2C[C@H](O)CO [(S)-DHPA]
EC50 (Punta toro virus): > 250 µM | EC50 (Sindbis virus): > 250 µM | EC50 (Para-influenza-3 virus): > 250 µM | Minimum cytotoxic concentration (Vero cells): >250 µM | EC50 (Reovirus-1): > 250 µM

NC12CC3CC(CC(C3)C1)C2 [Amantadine]
CC50 (in vitro): > 500 µM

CCC(CC)O[C@@H]1C=C(C(=O)O)C[C@H](N)[C@H]1NC(C)=O [Oseltamivir carboxylate]
EC50 (Influenza B; [1]): 6.2 ± 0.33 µM | EC50 (Influenza B; [2]): 4 ± 0.11 µM | CC50 (in vitro): > 100 µM

NC(=O)c1ncn([C@@H]2O[C@H](CO)[C@@H](O)[C@H]2O)n1 [Ribavirin]
EC50 (Influenza B; [1]): 9.6 ± 0.98 µM | EC50 (Influenza B; [2]): 9 ± 0.56 µM | EC50 (Sindbis virus): > 250 µM | EC50 (Para-influenza-3 virus): 112 µM | Minimum cytotoxic concentration (Vero cells): >250 µM | EC50 (Reovirus-1): > 250 µM
